# Assay results: patent US20070232492A1, “Herbicidal Composition” (Ishihara Sangyo Kaisha, LTD., priority 2004, published 2007)
# Where two headings read alike, the source gives them in different places.
# Columns and labels:
# Assay type in all cases: in vivo
# [1] = tested on: rice (Oryza sativa var. Nihonbare); experiment: Growth inhibition (phytotoxicity) of transplanted rice by compound A2 with or without compound D, application under submerged condition, visual rating 7 and 21 days after application; settings: Compound A2 60 g/ha + Compound D 600 g/ha, applied 5 days after implantation; for Growth inhibition rate (%) (average) 7 days: 7 days after application; for Growth inhibition rate (%) (average) 21 days: 21 days after application
# Excerpt: (§1) Growth inhibition rate (%)=0% (equivalent to the non-treated area) to 100% (complete kill)
# Paddy field soil was put into a 1/500,000 hectare pot, harrowed and irrigated with a depth of 3 cm. On the next day, rice (Oryza sativa var. Nihonbare) at 2 leaf stage was implanted with a depth of 3 cm. A wettable powder of compound A2 and a wettable powder of compound D were, respectively, diluted with water and applied under submerged condition 5 days after implantation so that the active ingredients became the prescribed amounts, respectively. The state of growth of rice was visually observed 7 days and 21 days after application, and the growth inhibition rate (%) was evaluated in the same is manner as in the above Test Example 1.
# [2] = tested on: barnyardgrass (Echinochloa oryzicola vasing); experiment: Growth inhibition of barnyardgrass in paddy soil pots, foliar application with a small sprayer, visual rating and Colby expected value; settings: Echinochloa oryzicola, 504 h, 3.0 to 3.3 leaf stage, 21 days after application, read-out: Growth inhibition rate (%) Observed
# Excerpt: (§2) When the herbicidal activity in a case where two active ingredients are combined, is larger than the simple sum of the respective herbicidal activities of the two active ingredients (the expected activity), it is called a synergistic effect. The activity expected by the combination of two active ingredients can be calculated as follows (Colby S. R., “Weed”, vol. 15, p. 20-22, 1967). E=p+q−(p×q÷100) where p: growth inhibition rate when treated with x (g/a) of herbicide X,
# (§3) q: growth inhibition rate when treated with y (g/a) of herbicide Y,
# (§4) E: growth inhibition rate expected when treated with x (g/a) of herbicide X and y (g/a) of herbicide Y.
# (§5) Namely, when the actual growth inhibition rate (observed value) is larger than the growth inhibition rate by the above calculation (expected value), the activity by the combination can be regarded as showing a synergistic effect.
# as §1
# Paddy field soil was put into a 1/10,000 are pot, and seeds of barnyardgrass (Echinochloa oryzicola vasing) were sown and left to stand under an irrigated condition with a water depth of 3.5 cm. When barnyardgrass reached 3.0 to 3.3 leaf stage, a wettable powder of compound A2 and a water-based suspension of compound (B11.1) were, respectively, diluted with water in an amount of 1,000 liter/ha, followed by foliar application with a small sprayer. The state of growth was visually observed 21 days after application, and evaluation and calculation were carried out in the same manner as in the above Test Example 1.
# [3] = tested on: barnyardgrass (Echinochloa oryzicola vasing); experiment: Growth inhibition of barnyardgrass in paddy soil pots, application under submerged condition, visual rating (observed value) and Colby expected value; settings: Echinochloa oryzicola, soil, read-out: Growth inhibition rate (%) Observed
# In short: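 Barnyardgrass (Echinochloa oryzicola vasing) seeds were sown in paddy field soil in 1/10,000 are pots and kept irrigated at a water depth of 3.5 cm. Wettable powders of the active ingredients were diluted with water and applied under submerged conditions at the prescribed amounts. Growth was visually scored from 0% (as untreated) to 100% (complete kill), and expected values were calculated with Colby's formula.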
# [4] = tested on: flatsedge (Cyperus serotinus); experiment: Growth inhibition of flatsedge (planted tubers) in paddy soil pots, application under submerged condition, visual rating and Colby expected value; settings: Cyperus serotinus, soil, 720 h, 2.5 to 3.0 leaf stage, 30 days after application, Test Examples 46-60, read-out: Growth inhibition rate (%) Observed
# Excerpt: as §2, §3, §4, §5, §1
# (§6) Paddy field soil was put into a 1/10,000 are pot, and tubers of flatsedge (Cyperus serotinus) were planted and left to stand under an irrigated condition with a water depth of 3.5 cm. When flatsedge reached 2.8 to 3.2 leaf stage, wettable powders of compound A2 and compound (B1.2) were, respectively, diluted with water and applied under submerged condition so that the active ingredients became the prescribed amounts, respectively. The state of growth was visually observed 29 days after application, and evaluation and calculation were carried out in the same manner as in the above Test Example 1.
# Paddy field soil was put into a 1/3,000 are pot, and tubers of flatsedge (Cyperus serotinus) were planted and left to stand under an irrigated condition with a water depth of 3.5 cm. When flatsedge reached 4 leaf stage, a wettable powder of compound A2 and an emulsifiable concentrate of compound C4 were, respectively, diluted with water and applied under submerged condition so that the active ingredients became the prescribed amounts, respectively. The state of growth was visually observed 21 days after application, and the growth inhibition rate (%) evaluated in the same manner as in the above Test Example 1 (observed value) and the growth inhibition rate (%) calculated by the above-mentioned Colby method (expected value) are shown in Table 32.
# as §6, with “2.5” for “2.8”, “3.0” for “3.2”, “A2, compound (D2.3)” for “A2”, “(B4.1)” for “(B1.2)”, “30” for “29”, “evaluated” for “evaluation and calculation were carried out”
# as §6, with “2.5” for “2.8”, “3.0” for “3.2”, “A2, compound (D2.3)” for “A2”, “(B6.1)” for “(B1.2)”, “30” for “29”, “evaluated” for “evaluation and calculation were carried out”
# Paddy field soil was put into a 1/10,000 are pot, and tubers of flatsedge (Cyperus serotinus) were planted and left to stand under an irrigated condition with a water depth of 3.5 cm. When flatsedge reached 2.5 to 3.0 leaf stage, wettable powders of compound A2, compound (D2.3) and compound (B8.1) were, respectively, diluted with water and applied under submerged condition so that the active ingredients became the prescribed amounts, respectively. […]
# [5] = tested on: Japanese bulrush (Scirpus juncoides); experiment: Growth inhibition of Japanese bulrush in paddy soil pots, application under submerged condition, visual rating and Colby expected value; settings: Schoenoplectiella juncoides, soil, 456 h, 3 leaf stage, 19 days after application, Test Example 37, read-out: Growth inhibition rate (%) Observed
# Excerpt: as §2, §3, §4, §5, §1
# (§7) Paddy field soil was put into a 1/10,000 are pot, and seeds of Japanese bulrush (Scirpus juncoides) were sown and left to stand under an irrigated condition with a water depth of 3.5 cm. When Japanese bulrush reached 2.3 to 2.6 leaf stage, a wettable powder of compound A2 and granules of compound (B7.1) were, respectively, diluted with water and applied under submerged condition so that the active ingredients became the prescribed amounts, respectively. The state of growth was visually observed 10 days after application, and evaluation and calculation were carried out in the same manner as in the above Test Example 1.
# as §7, with “an emulsifiable concentrate” for “granules”, “(B3.1)” for “(B7.1)”
# (§8) Paddy field soil was put into a 1/10,000 are pot, and seeds of Japanese bulrush (Scirpus juncoides) were sown and left to stand under an irrigated condition with a water depth of 3.5 cm. When Japanese bulrush reached 2 leaf stage, wettable powders of compound A2, C2 and C4 and granules of compound C6 were, respectively, diluted with water and applied under submerged condition so that the active ingredients became the prescribed amounts, respectively.
# Paddy field soil was put into a 1/10,000 are pot, and seeds of Japanese bulrush (Scirpus juncoides) were sown and left to stand under an irrigated condition with a water depth of 3.5 cm. When Japanese bulrush reached 2 leaf stage, wettable powders of compound A2, C2 and C4 and granules of compound C6 were, respectively, diluted with water and applied under submerged condition so that the active ingredients became the prescribed amounts, respectively. The state of growth was visually observed 19 days after application, and the growth inhibition rate (%) evaluated in the same manner as in the above Test Example 1 (observed value) and the growth inhibition rate (%) calculated by the above-mentioned Colby method (expected value) are shown in Tables 36, 37 and 38.
# as §8, with “3” for “2”, “A2” for “A2, C2”, “and” for “and C4 and granules of”, “(D2.2)” for “C6”, “respectively. […]” for “respectively.”
smiles,measurement,setting,value
"CC(C)(SC(=O)N1CCCCC1)c1ccccc1 [(D2.1), S-1-methyl-1-phenylethyl piperidine-1-carbothioate]",Growth inhibition rate (%) (average) 7 days,[1],5%
same,Growth inhibition rate (%) (average) 21 days,[1],10%
"COc1cnc(OC)n2nc(NS(=O)(=O)c3c(OCC(F)F)cccc3C(F)(F)F)nc12 [Compound (B11.1), penoxsulam]",inhibition at 4.7 g/ha,[2]; 0.047 g/a,10%
same,inhibition at 9.4 g/ha,[2]; 0.094 g/a,47%
same,inhibition at 18.8 g/ha,[2]; 0.188 g/a,80%
"Cc1ccc(NC(=O)NC(C)(C)c2ccccc2)cc1 [Compound (D1.1), 1-(1-methyl-1-phenylethyl)-3-p-tolylurea]",inhibition at 563 g/ha,"[3]; 528 h, 563 g/ha, 3 leaf stage, 22 days after application, Test Example 36",0%
same,inhibition at 1125 g/ha,"[3]; 528 h, 1,125 g/ha, 3 leaf stage, 22 days after application, Test Example 36",10%
same,Growth inhibition rate (%) (average) 7 days,[1],2%
same,Growth inhibition rate (%) (average) 21 days,[1],10%
same,inhibition at 1500 g/ha,[4]; 15 g/a,20%
"CCSC(=O)N1CCCCCC1 [Compound (D2.2), S-ethyl azepane-1-carbothioate]",Growth inhibition rate (%) (average) 7 days,[1],7%
same,Growth inhibition rate (%) (average) 21 days,[1],17%
same,inhibition at 900 g/ha,[5]; 900 g/ha,60%
same,inhibition at 1800 g/ha,"[5]; 1,800 g/ha",60%
"COc1cccc(N(C)C(=S)Oc2cccc(C(C)(C)C)c2)n1 [Compound (D2.3), O-3-tert-butylphenyl 6-methoxy-2-pyridyl(methyl)thiocarbamate]",inhibition at 188 g/ha,"[3]; 504 h, 1.88 g/a, 2.8 to 3.2 leaf stage, 21 days after application, Test Examples 39-43",0%
same,inhibition at 375 g/ha,"[3]; 504 h, 3.75 g/a, 2.8 to 3.2 leaf stage, 21 days after application, Test Examples 39-43",0%
same,inhibition at 188 g/ha,"[3]; 528 h, 188 g/ha, 3 leaf stage, 22 days after application, Test Example 38",3%
same,inhibition at 375 g/ha,"[3]; 528 h, 375 g/ha, 3 leaf stage, 22 days after application, Test Example 38",7%
same,Growth inhibition rate (%) (average) 7 days,[1],3%
same,Growth inhibition rate (%) (average) 21 days,[1],5%
same,inhibition at 600 g/ha,[4]; 6 g/a,20%
